The source of these data is patent publication US20230032101A1, “FIVE-MEMBERED HETEROCYCLIC OXOCARBOXYLIC ACID COMPOUND AND MEDICAL USE THEREOF” (Shanghai Institute of Materia Medica, Chinese Academy of …, priority 2019, published 2023).

The target in one assay is human-derived STING (Homo sapiens, UniProt Q86WV6). Conditions: cited from earlier work.
For assay [1], the system named is 4T1 mouse breast cancer cells. The experiment in a line: 4T1 breast cancer orthotopic tumor model in vivo. The conditions noted are these: Balb/C mice, intratumoral injection (IT), days 1/2/3/4/7; FIG. 1. The procedure: 6-8 week old Balb/C mice were inoculated with 2.5×10^5 4T1 mouse breast cancer cells in the mammary fat pad of each mouse. When the tumor volume grew to about 100 mm^3, the mice were randomly divided into 5 groups, 6 mice in each group.
(§1) Experimental results were evaluated in the form of tumor volume growth curves.

The test system of assay [2] is type I interferon pathway in murine Raw-lucia cells. The assay is described as follows: Activation of type I interferon pathway in murine Raw-lucia cells (QUANTI-Luc luminescence). In kind it is cell-based. The conditions noted are these: Mus musculus, 24 h, Compound Luminescence/Control Luminescence, ≥2 times considered valid, read-out: Fold Change. Here is the method:
Raw-lucia cells were counted, the cell concentration was adjusted to 5×10^5/mL, and 180 μL of cells were added to each well for incubation. 20 μL of compound diluted with physiological saline was added to each well of a 96-well cell culture plate after cells were adhered, the concentration of the compound was 50 μM/100 μM.
After 24 hours, 20 μL of the culture medium was took out from each well to a new 96-well plate with bottom-transmitting, 50 μL of the luciferase detection reagent QUANTI-Luc™ was added, and the […] was measured immediately (in the dark). The experiment was repeated twice.

Assay [3] deals with CT26 mouse colon cancer cells. The experiment in a line: CT26 colon cancer subcutaneous xenograft model in vivo. Conditions: Balb/C mice, intratumoral injection (IT), days 1/2/3/4/7; FIG. 2. Here is the method: […] When the tumor volume grew to about 100 mm^3, the mice were randomly divided into 5 groups, 6 mice in each group.
as §1

In assay [4] the test system is type I interferon pathway (ISG) in human THP1-Blue-ISG cells. The assay is described as follows: Activation of type I interferon pathway (ISG) in human THP1-Blue-ISG cells (Quanti-Blue, OD650). In kind it is cell-based. Conditions: Homo sapiens, THP1-Blue ISG; 10 μM, 24 h; Compound OD650/Control OD650; ≥2 times considered valid; read-out: Fold Change. The procedure: 20 μL of compound diluted with physiological saline was added to each well of a 96-well cell culture plate, the positive control compound was ADU-S100, and the solvent control group was added with 20 μL of physiological saline containing DMSO. THP1-Blue-ISG cells were counted, the cell concentration was adjusted to 5×10^5/mL, and 180 μL of cells were added to each well for incubation. Therefore, the final volume of each test well was 200 μL, the content of DMSO was 0.1%/0.5%, the test concentration of the compound was 10/50 μM, and the positive control compound was ADU-S100 at a final concentration of 10 μM, and incubated for 24 hours for detection.
After 24 hours, 20 μL of the culture solution was took out from each well to a new 96-well plate, 180 μL of chromogenic solution Quanti-Blue was added, placed in a 37° C. incubator, and the OD650 value was measured after 0.5-2 hours. The experiment was repeated twice.
The experimental results were used to evaluate the ability of compounds to induce the secretion of type I interferon pathway (ISG) by the Fold Change, which was calculated as follows:
Fold Change=Compound OD650/Control OD650, wherein the results of ≥2 times were considered valid.

Assay [5] has the same test system. The assay is described as above. In kind it is cell-based. Conditions: 24 h, Compound OD650/Control OD650, ≥2 times considered valid, read-out: Fold Change.

Sequence of human-derived STING (Q86WV6 whole entry H232R): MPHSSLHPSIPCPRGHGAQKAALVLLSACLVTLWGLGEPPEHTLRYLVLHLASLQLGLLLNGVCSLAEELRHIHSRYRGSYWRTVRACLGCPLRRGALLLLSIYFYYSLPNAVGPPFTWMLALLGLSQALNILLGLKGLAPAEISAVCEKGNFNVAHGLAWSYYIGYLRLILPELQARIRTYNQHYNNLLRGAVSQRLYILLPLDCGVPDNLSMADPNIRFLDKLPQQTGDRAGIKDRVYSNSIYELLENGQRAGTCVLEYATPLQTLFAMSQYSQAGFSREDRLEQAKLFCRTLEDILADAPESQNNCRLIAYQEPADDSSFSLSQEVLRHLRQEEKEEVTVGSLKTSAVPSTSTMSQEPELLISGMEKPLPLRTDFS

As for `Cc1ccc2c(=O)c3cccc(CC(=O)O)c3oc2c1C` [DMXAA], at human-derived STING, the “agonistic effect on STING” value is reported as “ineffective”.

Turning to `O=C(O)CCC(=O)c1cc(-c2c[nH]c3ccccc23)cs1` [I′-31, 4-(4-(1H-indol-3-yl)thiophen-2-yl)-4-oxobutyric Acid], the “anti-tumor effect (tumor volume growth curves)” value in assay [1] and in assay [3] was “significant anti-tumor effect” each time. Further, the tumor regression result in assay [1] and in assay [3] was “tumor regression effect is achieved in some mouse tumor models” each time. Besides, in assay [2], the fold induction at 50 µM is 21.8. The fold induction at 10 µM in assay [4] stood at 13.8.

As for `O=C(O)CCC(=O)c1cc(-c2coc3ccccc23)co1` [I′-17, 4-(4-(benzofuran-3-yl)furan-2-yl)-4-oxobutyric acid], the fold induction at 50 µM in assay [2] amounted to 12.5. The fold induction at 25 µM in assay [5] (25 μM) amounted to 21.6.

As for `O=C(O)CCC(=O)c1cc(-c2coc3cc(F)ccc23)co1` [I′-42, 4-(4-(6-fluorobenzofuran-3-yl)furan-2-yl)-4-oxobutyric Acid], the fold induction at 100 µM in assay [2] was 7.45. For the same compound, the fold induction at 30 µM in assay [5] (30 μM) came to 16.8.

As for `O=C(O)CCC(=O)c1cc(-c2c[nH]c3ccccc23)co1` [I′-30, 4-(4-(1H-indol-3-yl)furan-2-yl)-4-oxobutyric Acid], the fold induction at 100 µM in assay [2] turned out to be 8.13. Besides, in assay [5] (12.5 μM), the fold induction at 12.5 µM turned out to be 22.7.
